Patent publication US10562920B2, “Ln(III) and Ga(III) metallacrown complexes” (The Regents of the University of Michigan, priority 2015, dated 2020)
Where “and” joins values, the source holds several entries; their conditions need not be identical. Equal values may be shown once. Marks after values point to notes of the source that are not given here. Blank lines part the entries; values can stand above or below the substance they belong to.

Key:
Type in all cases: physicochemical
[1] = Luminescence lifetimes under excitation at 355 nm; conditions: for τobs/μs: Ga8Ln2(shi)8, solid state
Method: (§1) Luminescence data were collected on samples placed into 2.4 mm i.d. quartz capillaries or quartz Suprasil cells. Emission and excitation spectra were measured on a Horiba-Jobin-YvonFluorolog 3 spectrofluorimeter equipped with either a visible photomultiplier tube (PMT) (220-800 nm, R928P; Hamamatsu), a NIR solid-state InGaAs detector cooled to 77 K (800-1600 nm, DSS-IGA020L; Jobin-Yvon), or NIR PMTs (950-1450 nm, H10330-45; 950-1650 nm, H10330-75; Hamamatsu). All spectra were corrected for instrumental functions. Luminescence lifetimes were determined under excitation at 355 nm provided by a Nd:YAG laser (YG 980; Quantel), while the signal was detected in the NIR by the aforementioned PMT (H10330-75). The output signal from the detectors was then fed to a 500 MHz bandpass digital oscilloscope (TDS 754C; Tektronix) and then transferred to a PC for treatment with Origin 8®. Luminescence lifetimes are averages of at least three independent measurements. Quantum yields were determined with a Fluorolog 3 spectrofluorimeter according to an absolute method using an integration sphere (GMP SA). Each sample was measured several times under slightly different experimental conditions. Estimated experimental error for quantum yields determination is 10%.

[2] = Ligand triplet state from phosphorescence of Gd3+ analogues; conditions: for ΔE (cm^−1), energy gap between ligand triplet state and Ln3+ emissive state: T1 = 22 170 cm^−1, Ga4Ln(shi)4
Method: as §1
Phosphorescence can be observed by recording the signal emitted from Ga4Gd(shi)4 in time-resolved mode in the solid state at 77K upon excitation at 350 nm and using a 200 μS delay after the excitation flash (FIG. 9). The 0-0 component of this band represents the energy level of the ligand's triplet state (T1=22,170 cm^−1, 451 nm) which is attributed to the energy level responsible for the main contribution of the transfer to the Ln^3+. The T1 level is sufficiently high in energy to populate the excited states of a wide range of visible and NIR-emitting Ln^3+.
Since the Ga8Ln2(shi)8 dimer compounds were insoluble in all solvents, the solid state photophysical data alone were collected. As with the Ga4Gd(shi)4 compound, the Ga8Gd2(shi)8 complex may be used to examine the ligand-based photophysical properties. […] The solid state ligand phosphorescence was obtained at 77 K using an excitation wavelength of 350 nm and a 100 μs delay (FIG. 11). The profile of the phosphorescence is similar to that of Ga4Gd(shi)4 (FIG. 9), which was expected, since both compounds are formed by the same framework ligand, H3shi. The 0-0 transition was determined to be located at 455 nm, or 21 978 cm^−1. This triplet state energy is slightly lower than that of the Ga4Gd(shi)4 compound (22 170 cm^−1), but still is sufficiently high in energy to sensitize visible (Dy^3+, Tb^3+, Sm^3+) and/or NIR emitting (Dy^3+, Sm^3+, Ho^3+, Yb^3+, Pr^3+, Nd^3+, Er^3+) lanthanides.

[3] = Hydration number q from lifetimes in deuterated and protic solvents; conditions: from kCH3OH − kCD3OD, equations of footnotes b, c, e, g
From the text: One parameter that can be obtained from the recording of luminescence lifetimes is the hydration number q. […] This non-zero q value is particularly detrimental for the intensity of the luminescence (and to the corresponding quantum yield values) of NIR-emitting lanthanides since the overtones of high-energy vibrations of the solvent molecules create a route for non-radiative deactivation.

[4] = Quantum yields by absolute method using an integration sphere; conditions: for QLn^L/%: Ga6Ln(shi)9, solid state
Method: as §1

[5] = Emission spectra under ligand excitation at 350 nm; conditions: Ga8Ln2(shi)8, solid state
Method: as §1
Using an excitation wavelength of 350 nm, both visible and NIR emission arising from f-f transitions of different lanthanide ions can be observed (FIG. 13). In general, quantum yields are lower for Ga8Ln2(shi)8 MCs compared to […] (Table 3) except for Ho^3+ analogues which quantum yield is increased by 1.65 times reaching 3.3(1)·10^−3%.

[6] = Ga8Ln2(shi)8, solid state, excitation 350 nm
[7] = solid state, 77 K, excitation 350 nm

τobs (μs) ([1]; Ga4Ln(shi)4, CD3OD): 255(1) μs
τobs (μs) ([1]; Ga4Ln(shi)4, CH3OH): 27.6(1) μs
τobs (μs) ([1]; Ga4Ln(shi)4, Solid): 148(1) μs
ΔE (cm^−1), energy gap between ligand triplet state and Ln3+ emissive state [2]: 4 270 cm^−1
q (hydration number) [3]: 0.8^b
QLn^L (%) (NIR) ([4]; Ga4Ln(shi)4, CD3OD): 0.298(1) %
QLn^L (%) (visible) ([4]; Ga4Ln(shi)4, CD3OD): 2.33(5) %
QLn^L (%) (NIR) ([4]; Ga4Ln(shi)4, CH3OH): 2.65(6) · 10^−2%
QLn^L (%) (visible) ([4]; Ga4Ln(shi)4, CH3OH): 0.252(1) %
QLn^L (%) (NIR) ([4]; Ga4Ln(shi)4, Solid): 0.450(4) %
QLn^L (%) (visible) ([4]; Ga4Ln(shi)4, Solid): 2.46(8) %
Substance: [Ga4Sm(shi)4(C6H5CO2)4(C5H5N)(CH3OH)].C5H6N.C5H5N.CH3OH

τ/μs ([1]; solid state Ga4Ln(shi)6): 0.032(1) μs
Substance: [HoGa4(shi)4(H2shi)2(C5H5N)4(NO3)].(C5H5N)2 [Ga4Hoshi6]

τobs/μs [1]: 0.032(1) μs
λem/nm [5]: 978 nm
QLn^L (%) (NIR) [4, 6]: 3.3(1) · 10^−3%
Substance: [Ga8Ho2(shi)8(isophthalate)4(DMF)6].8DMF.2H2O

τobs/μs [1]: 117(1) μs
λem/nm [5]: 597 nm
QLn^L (%) (NIR) [4, 6]: 0.269(3) %
QLn^L (%) (visible) [4, 6]: 2.09(5) %
Substance: [Ga8Sm2(shi)8(isophthalate)4(DMF)6].8DMF.2H2O

τobs (μs) ([1]; Ga4Ln(shi)4, Solid): 1.47(1) μs
ΔE (cm^−1), energy gap between ligand triplet state and Ln3+ emissive state [2]: 820 cm⁻¹
QLn^L (%) (visible) ([4]; Ga4Ln(shi)4, Solid): 0.02(1)^f %
Substance: [TmGa4(shi)4(C6H5CO2)4(C5H5N)(CH3OH)].C5H6N.0.5C5H5N [Ga4Tm(shi)4]

τobs/μs [1]: 0.901(6) μs
λem/nm [5]: 1020 nm
QLn^L (%) (NIR) [4, 6]: 9.3(1) · 10^−3%
Substance: [Ga8Pr2(shi)8(isophthalate)4(DMF)6].8DMF.2H2O

τobs/μs [1]: 2.46(1) μs
λem/nm [5]: 1064 nm
QLn^L (%) (NIR) [4, 6]: 0.99(2) %
Substance: [Ga8Nd2(shi)8(isophthalate)4(DMF)6].8DMF.H2O

τobs/μs [1]: 15.0(1) μs
λem/nm [5]: 575 nm
QLn^L (%) (NIR) [4, 6]: 7.5(1) · 10^−2%
QLn^L (%) (visible) [4, 6]: 0.85(1) %
Substance: [Ga8Dy2(shi)8(isophthalate)4(DMF)6].8DMF.2H2O

τobs (μs) ([1]; Ga4Ln(shi)4, CD3OD): 1.74(1) μs
τobs (μs) ([1]; Ga4Ln(shi)4, Solid): 6.75(3) μs
ΔE (cm^−1), energy gap between ligand triplet state and Ln3+ emissive state [2]: 15 470 cm^−1
QLn^L (%) (NIR) ([4]; Ga4Ln(shi)4, CD3OD): 4.5(3)·10^−2%
QLn^L (%) (NIR) ([4]; Ga4Ln(shi)4, Solid): 4.4(1)·10^−2%
Substance: [ErGa4(shi)4(C6H5CO2)4(C5H5N)(CH3OH)].C5H6N.0.5C5H5N [Ga4Er(shi)4]

ligand triplet state (T1, 0-0 component of phosphorescence), wavelength [2, 7]: 451 nm
ligand triplet state energy (T1, 0-0 component of phosphorescence) [2, 7]: 22,170 cm^−1 and 22 170 cm^−1
Substance: [Ga4Gd(shi)4(C6H5CO2)4(C5H5N)(CH3OH)].C5H6N.C5H5N.CH3OH

τ/μs ([1]; solid state Ga4Ln(shi)6): 2.99(2) μs
QLn^L/% NIR ([4]; solid state Ga4Ln(shi)6): 0.216(6) %
Substance: [YbGa4(shi)4(H2shi)2(C5H5N)5].(NO3).(C5H5N)2 [Ga4Ybshi6]

QLn^L/% [4]: 0.189(3) %
Substance: [TbGa6(shi)7(Hshi)(H2shi)(C6H16N)3(C5H5N)2] [Ga6Tb(shi)9]

τ/μs ([1]; Ga6Ln(shi)9, solid state): 7.26(2) μs
QLn^L/% [4]: 0.65(3) %
Substance: [YbGa6(shi)7(Hshi)(H2shi)(C6H16N)3(C5H5N)2].8H2O [Ga6Yb(shi)9]

τ/μs ([1]; Ga6Ln(shi)9, solid state): 0.905(8) μs
QLn^L/% [4]: 7.1(2) · 10^−3%
Substance: [ErGa6(shi)7(Hshi)(H2shi)(C6H16N)3(C5H5N)2].6H2O [Ga6Er(shi)9]

τ/μs ([1]; solid state Ga4Ln(shi)6): 509(7) μs
QLn^L/% VIS ([4]; solid state Ga4Ln(shi)6): 11.3(5) %
Substance: [TbGa4(shi)4(H2shi)2(C5H5N)4(NO3)].(C5H5N)2 [Ga4Tbshi6]
